Measured values: article PMC3824214, “A Novel Factor Xa-Inhibiting Peptide from Centipedes Venom” (International Journal of Peptide Research and Therapeutics, 2013)
“And” between values parts separate entries of the source, which are not always exact repeats. Equal values may be shown once. Read-outs that look alike come from different tables or passages of the source. Marks after values point to notes of the source that are not given here.

Tests used:
[1] = from S. subspinipes mutilans; ref Kong et al. [2013]; cited from earlier work
Description: The centipede contains many bioactive components, including 5-hydroxytryptamine, histamine, lipids, polysaccharides, and various enzymes (e.g. proteinases and esterases) (Knysak et al. [1998]; Gomes et al. [1983]). They have been widely used as traditional folk medicine to treat thrombotic diseases in China (Pemberton [1999]) for several hundred years. […] Wu et al. ([2009]) found centipede acidic protein (CAP) signif ...

human FXa = target: T1, human FXa (Homo sapiens, UniProt P00742); test: FXa inhibition assay, chromogenic substrate S-2222; assay type: biochemical
T1 construct: Purified human FXa; purchased HYPHEN BioMed (Neuvile sur Oise, France)
Description: Sephadex G-50 was obtained from Pharmacia (Uppsala, Sweden). Purified human FXa and chromogenic substrate of FXa (S2222) were purchased from HYPHEN BioMed (Neuvile sur Oise, France). Mice of both sexes were from Qinglongshan animal center (Nanjing, Jiangsu Province, China). All the animal protocols were approved by the Animal Care and Use Committee at China Pharmaceutical University. All other chemicals and reagents were at analytical grade.
Chromogenic substrate method was used to measure the FXa-inhibiting activity. Inhibition was determined by FXa residual activity on the chromogenic substrate BIOPHEN CS-11 (S-2222) (22), which liberates the chromophoric group pNA (p-nitroaniline) (van Wijk and Smit [1984]). Different concentrations of the peptide (5–60 mg/ml) were incubated with FXa for 30 min at 37 °C in PBS (pH 8.34). The reaction was initiated by adding the substrate into the peptide solution (Ibrahima et al. [2001]). The absorbance at 405 nm was recorded every 0.5 min in 5 min. In A–t curve, the curve slope was considered as reaction rate (v).
Inhibition rate(%)=V0- Vi/V0×100%, V0 is the rate of PBS (pH 8.34, model control), and Vi is the rate of peptide.

[2] = tested on: normal citrated PPP (platelet poor plasma); test: in vitro PT clotting assay; assay type: biochemical, ICR mice; details: sample diluted in PBS pH 8.34, mouse PPP, 3 min at 37 °C, triplicates, mean ± SE
Description: (§1) Blood was drawn by Eyeball from ICR mice. The blood was separately centrifuged at 2,500×g for 10 min to obtain platelet poor plasma (PPP). For the in vitro aPTT assay, normal citrated PPP (50 μl) was incubated with sample solution (8, 6, 4, 2, 1 mg/ml, previously diluted in PBS, pH 8.34, 50 μl) and 100 μl aPTT reagent for 3 min at 37 °C. Clotting time was immediately recorded after the addition of 100 μl of 20 mM CaCl2. For the in vitro PT assay, normal citrated PPP (25 μl) was incubated with sample solution (8, 6, 4, 2, 1 mg/ml, previously diluted in PBS, pH 8.34, 25 μl) for 3 min at 37 °C. Clotting time was immediately recorded after the addition of 50 μl of PT reagent (Majdoub et al. [2009]). All coagulation assays were performed in triplicates. Heparin was used as a positive control, and PBS (pH 8.34) as model control. For ex vivo coagulation assays, samples were dissolved in saline and were intravenously injected (10 or 20 mg/kg) in ICR mice (6 animals/group). Five and 24 h after drug administration, blood was collected (drawn by eyeball), immediately centrifuged (3,000 rpm, 15 min), and the plasma was used to measure the aPTT and PT as previously described (Batista et al. [2010]).

[3] = tested on: plasma of treated mice (aPTT); test: ex vivo aPTT assay; assay type: in vivo, ICR mice; details: for APTT: ex vivo, ICR mice, 6 animals/group, mean ± SE
Description: as §1

bleeding time = test: Bleeding time in vivo, tail cut; design: species or system ICR mice; details: for BT (bleeding time): 6 animals/group, mean ± SE, saline 315.2 s
Description: The mice (both sexes, 18–22 g) were randomly divided into four groups. The samples were intravenously injected (10 or 20 mg/kg) in ICR mice (6 animals/group) once a day in four consecutive days. Fifteen minutes after the last administration (positive control after 2 h), the mice tail was marked with a tag in the distance of 3 mm to after peak, then cut in the mark. Then the tip of the tail was immersed in saline at 37 °C. Record the time from cutting the tip of the tail to stopping bleeding, the interval was called bleeding time (Kogushi et al. [2011]). Heparin was used as positive control, and 0.9 % saline as model control.

[4] = tested on: plasma of treated mice (PT); test: ex vivo PT assay; assay type: in vivo, ICR mice; details: for PT: ex vivo, ICR mice, 6 animals/group, mean ± SE
Description: as §1

[5] = tested on: normal citrated PPP (platelet poor plasma); assay type: biochemical, ICR mice; details: for APTT: sample diluted in PBS pH 8.34, mouse PPP, 3 min at 37 °C, triplicates, mean ± SE
Description: as §1

whole blood clotting = test: Whole blood clotting time in vivo, capillary glass tube method; design: species or system mice; details: for CT (clotting time): six per group, mean ± SE, saline 273.2 s; for Effect on whole blood clotting time: TNGYT 10 and 20 mg/kg, heparin 20 mg/kg, versus control group, P < 0.01
Description: Whole blood clotting time (CT) in mice was measured by capillary glass tube method (Li et al. [2004]). Mice (18–22 g body weight) were divided into four groups (both sexes, six per group). Two groups were received intravenous injection of 20 and 10 mg/kg body weight of the purified peptide for four consecutive days. Other groups were received normal saline and 20 mg/kg body weight of heparin (the positive control), respectively. Fifteen minutes after the last administration (positive control after 2 h), blood samples were collected through the retro-orbital plexus with a glass capillary and kept on a slide to allow for clotting. Stirring the blood with a dry needle every 30 s until needle wire can provoke a fibrous protein, when is defined as clotting time.

T1 sequence (P00742 235-488 limits assumed): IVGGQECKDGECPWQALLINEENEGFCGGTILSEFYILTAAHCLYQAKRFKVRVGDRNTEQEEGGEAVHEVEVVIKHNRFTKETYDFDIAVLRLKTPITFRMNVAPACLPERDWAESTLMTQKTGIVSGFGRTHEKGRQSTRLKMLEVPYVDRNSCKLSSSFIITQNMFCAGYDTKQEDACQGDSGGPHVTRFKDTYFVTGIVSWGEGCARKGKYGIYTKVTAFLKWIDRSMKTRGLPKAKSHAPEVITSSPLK
T1 sequence (P00742 41-179 partner limits assumed): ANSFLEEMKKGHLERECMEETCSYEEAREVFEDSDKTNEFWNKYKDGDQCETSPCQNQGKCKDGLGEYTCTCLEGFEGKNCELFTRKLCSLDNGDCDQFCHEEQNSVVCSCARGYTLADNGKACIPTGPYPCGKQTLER

Ser-Gln-Leu (SQL) [anti-thrombotic peptide isolated from S. subspinipes mutilans]
Anti-thrombotic activity [1]: anti-thrombotic

Thr-Asn-Gly-Tyr-Thr (TNGYT)
Inhibition of FXa activity (human FXa; 60 mg/ml, 30 min at 37 °C, PBS pH 8.34, substrate S-2222, absorbance 405 nm): 59.75% | Inhibition rate of FXa relative to other protein/peptide FXa inhibitors (human FXa; versus Ac-AP-12, Amblyomin-X, Nymphal FXa inhibitor, AduNAP4): lower than FXa inhibitors mentioned above | PT ([2]; 1 mg/ml): 14.7 ± 0.6 s | PT ([2]; 2 mg/ml): 15.3 ± 1.5 s | PT ([2]; 4 mg/ml): 17.7 ± 0.6 s | PT ([2]; 8 mg/ml, 0.9 % saline control 12.7 s): 23.3 s and 23.3 ± 1.5 s | Alteration of aPTT ex vivo ([3]; 10 or 20 mg/kg i.v., 5 and 24 h, mice): increases in the aPTT were observed | APTT ([3]; 5 h after 10 mg/kg i.v., saline 49.0 s): 59.0 ± 2.0 s | APTT ([3]; 5 h after 20 mg/kg i.v., saline 49.0 s): 65.7 ± 3.1 s | APTT ([3]; 24 h after 10 mg/kg i.v., saline 47.0 s): 49.3 ± 1.5 s | APTT ([3]; 24 h after 20 mg/kg i.v., saline 47.0 s): 51.3 ± 2.3 s | BT (bleeding time) (bleeding time; 10 mg/kg i.v. once a day, four consecutive days, 15 min after last administration): 447.5 ± 78.1 s | BT (bleeding time) (bleeding time; 20 mg/kg i.v. once a day, four consecutive days, 15 min after last administration): 549.7 ± 60.9 s | Effect on bleeding time (bleeding time; 10 and 20 mg/kg, versus model control, P < 0.01): significantly prolong the bleeding time | Risk of bleeding relative to heparin (bleeding time; equal dose 20 mg/kg, inferred from bleeding time): lower than that of heparin | Alteration of PT ex vivo ([4]; 10 or 20 mg/kg i.v., mice): no significant alterations were observed in the PT | PT ([4]; 5 h after 10 mg/kg i.v., saline 15.7 s): 16.7 ± 0.6 s | PT ([4]; 24 h after 10 mg/kg i.v., saline 17.7 s): 18.7 ± 1.5 s | PT ([4]; 24 h after 20 mg/kg i.v., saline 17.7 s): 18.3 ± 0.6 s | Biological activity, natural vs synthesized peptide (aPTT and PT assays) ([5]; aPTT and PT assays, data in Table 1 of Supplementary Data): the same biological activity | Potency relative to heparin, fold lower ([5]; in vitro assay, lower than heparin): at least 8 -folded | APTT ([5]; in vitro, 1 mg/ml): 36.7 ± 1.5 s | APTT ([5]; in vitro, 2 mg/ml): 44.0 ± 2.0 s | APTT ([5]; in vitro, 4 mg/ml): 44.0 ± 1.0 s | APTT ([5]; in vitro, 8 mg/ml, 0.9 % saline control 33.3 s): 57 s and 57.0 ± 2.0 s | Action on aPTT and PT relative to heparin ([5]; in vitro, aPTT and PT, versus heparin (1 mg/ml)): lower than the positive control heparin | CT (clotting time) (whole blood clotting; 10 mg/kg i.v., four consecutive days, 15 min after last administration, mice): 389.0 ± 35.74 s | CT (clotting time) (whole blood clotting; 20 mg/kg i.v., four consecutive days, 15 min after last administration, mice): 463.0 ± 48.8 s | Effect on whole blood clotting time (whole blood clotting): significantly prolong whole blood clotting time | Effect in prolonging the clotting time compared to heparin (whole blood clotting; same dose of 20 mg/kg, i.v., mice): about 50%

Heparin [reference compound]
PT ([2]; 1 mg/ml): >60.0** s | BT (bleeding time) (bleeding time; positive control 20 mg/kg, 2 h after last administration): 804.3 ± 87.7 s | APTT ([5]; in vitro, 1 mg/ml): >60.0** s | Effect on whole blood clotting time (whole blood clotting): significantly prolong whole blood clotting time | CT (clotting time) (whole blood clotting; positive control 20 mg/kg, 2 h after administration, mice): 718.8 ± 60.15 s
